We go through four molecules from paper PMC11609934, “Exploration and characterization of the antimalarial activity of cyclopropyl carboxamides that target the mitochondrial protein, cytochrome b” (European Journal of Medicinal Chemistry, 2024).

Structures are written as SMILES. Values after ≈ are worked out from the molar mass of the structure shown. Bounds are passed on as bounds.

In data set [1] the test system is P. berghei ANKA parasites. The data set can be described thus: P. berghei 4-day mouse model. The format is in vivo, Plasmodium berghei. As to conditions: for % parasitemia / % reduction in parasitemia: mice, day 4, oral gavage q.d. x4, 50 mg/kg (ART 30 mg/kg); for % reduction in parasitemia: versus vehicle control. On the procedure: The 4-day P. berghei mouse model is used to determine the preliminary in vivo efficacy of antimalarials at an early stage of optimization. To determine if cyclopropyl carboxamide series could reduce asexual blood stage infection, we evaluated representative compounds WJM280 (108) and analog 109 in the 4-day P. berghei mouse model. In this model, mice were infected P. berghei asexual stage parasites, and then 2 h after the infection, WJM280 (108) and analog 109 at 50 mg/kg and artesunate at 30 mg/kg were administered by oral gavage. The same compound doses were administered again, 24, 48, and 72 h post infection. Parasitemia was then quantified by preparing blood smears and visualizing by microscopy across days 2, 3, and 4. […] The inability of these compounds to reduce parasitemia was attributed to their high metabolic turnover, which is a characteristic that needs improving on further development of the cyclopropyl carboxamide class.
P. berghei 4-day Mouse Model. This model was conducted as previously described.

The test system of a further data set is female gamete. The data set can be described thus: Dual gamete formation assay, female gametes. The data set is classed as cell-based. To be noted: Plasmodium falciparum; NF54 parasites in a DGFA, 4 replicates. The protocol:
(§1) To determine whether the cyclopropyl carboxamide class has transmission blocking potential we profiled selected analogs in a dual gamete formation assay. In this assay, stage V gametocytes are treated with compound, and gametogenesis is induced by the addition of xanthurenic acid. Male gamete viability is determined by an imaging algorithm measuring motile flagellation, while female viability is measured using an antibody to the female-specific Pfs25 surface marker. […] Collectively, the activity observed against male gametes is consistent with activity observed with other cyt b inhibitors.
(§2) Dual Gamete Formation Assay. Compounds were evaluated as previously described as a platform run at both Imperial College London and the London School of Hygiene and Tropical Medicine. Briefly, mature stage V gametocytes were exposed to compounds for 48 h at 37 °C in 384 well plates in gametocyte culture medium (RPMI 1640 supplemented with 25 mM HEPES, 50 μg/mL hypoxanthine, 4.8 g/L NaHCO3, 2 mM L-glutamine, 5 % pooled type AB serum, 0.5 % Albumax II (Gibco)) under a 1 % O2/3 % CO2/96 % N2 environment. Gametogenesis was then triggered by the addition of 10 μL ookinete medium (gametocyte culture medium supplemented with 100 μM xanthurenic acid and 0.27 μg/mL Cy3-labelled anti-Pfs25 antibody) to each well at room temperature. Plates were then cooled on a metal block at 4 °C for 4 min to ensure even cooling and then stabilized for a further 4 min at 28 °C. At 20 min post-induction, male gametogenesis was recorded in each well by automated brightfield microscopy using a × 4 objective lens and 1.5 × magnifier ( × 6 effective magnification). Afterward, plates were incubated in the dark at room temperature for 24 h and then female gametogenesis recorded in each well by automated fluorescence microscopy (anti-Pfs25-positive cells). […] All data was evaluated in comparison to the positive and negative controls to calculate percentage inhibition of male and female gametocytes, and dose response analysis and EC50 calculation performed using GraphPad Prism.

A short description of data set [2]: eLogD (shake-flask, pH 7.4). The data set is classed as physicochemical. To be noted: 1-octanol/phosphate buffered saline (1:1, v/v), Shake-flask method. On the procedure: eLogD. The LogD (pH 7.4) assay was performed using a miniaturized shake flask method. A solution of a pre-saturated mixture of 1-octanol and phosphate buffered saline (PBS) (1:1, v/v) and the test compound (75 μM) was incubated at 25 °C with constant shaking (850 rpm) for 2 h. After incubation the organic and aqueous phases were separated, and samples of each phase transferred to plate for dilution. The organic phase was diluted to 1000-fold and the aqueous phase was diluted 20-fold. The samples were quantitated using LC-MS/MS. The experiment was carried out in duplicate. Propranolol, amitriptyline, and midazolam were used as reference standards.

Another data set in a line: Rat hepatocyte stability. The data set is classed as in vitro ADME. As to conditions: pooled rat hepatocytes. The protocol: Rat Hepatocyte Stability. A solution of the test compound in Krebs-Henseliet buffer solution (1 μM) was incubated in pooled rat hepatocytes (1 × 10^6 cells/mL) for 0, 15,30,45, 60, 75 and 90 min at 37 °C (5 % CO2, 95 % relative humidity). The reaction was terminated with the addition of ice-cold acetonitrile containing system suitability standard at designated time points. […] The experiment was carried out in duplicate. Diltiazem, 7-ethoxy coumarin, propranolol, and midazolam were used as reference standards.

Data set [3] can be described thus: Human liver microsome stability. The format is in vitro ADME. As to conditions: pooled human liver microsomes. The protocol:
Human Liver Microsome Stability. A solution of the test compounds in phosphate buffer solution (1 μM) was incubated in pooled human liver microsomes (0.5 mg/mL) for 0, 5, 20, 30, 45 and 60 min at 37 °C in the presence and absence of NADPH regeneration system. The reaction was terminated with the addition of ice-cold acetonitrile containing system suitability standard at designated time points. […] The experiment was carried out in duplicate. Verapamil, diltiazem, phenacetin, and imipramine were used as reference standards.
A general note: Liver microsomes are vesicles of endoplasmic reticulum, rich in cytochrome P450 enzymes.

A short description of data set [4]: Aqueous solubility (kinetic in PBS, pH 7.4). The format is physicochemical. To be noted: phosphate buffered saline. The protocol:
Solubility. The solubility assay was performed using a miniaturized shake flask method. A solution of phosphate buffered saline (PBS) and the test compound (200 μM) was incubated at 25 °C with constant shaking (600 rpm) for 2 h. The samples were filtered using a multiscreen solubility filter plate. The filtrate was half diluted in acetonitrile. A five-point linearity curve was prepared in PBS:acetonitrile (1:1, v/v) at 200, 150, 75, 25 and 2.5 μM. Blank, linearity and test samples (n = 2) were transferred to a UV readable plate and the plate was scanned for absorbance. Best fit calibration curves were constructed using the calibration standards and used to determine the test sample solubility. The experiment was carried out in duplicate. Diethylstilbestrol, haloperidol, and diclofenac sodium were used as reference standards.

Data set [5] has as its system P. falciparum 3D7 parasites. The data set can be described thus: P. falciparum 3D7 asexual stage LDH assay (72 h). To be noted: Plasmodium falciparum, 3D7, 72 h, LDH activity of P. falciparum 3D7 parasites over 72 h; means and SDs, three or more experiments; read-out: Pf 3D7 EC50 (SD). The data set is classed as cell-based, Plasmodium falciparum. In short, it runs like this: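 Asexual P. falciparum 3D7 parasites were grown for 72 h over a 10-point, 3-fold series starting at 1 μM in 0.1% DMSO, with 100 nM chloroquine as negative growth control. After freeze-thaw, parasite LDH was read at 650 nm, and EC50 came from a variable-slope sigmoidal fit.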

Data set [6] can be described thus: Human HepG2 growth inhibition assay (Cell TitreGlo, 48 h). The format is cell-based. As to conditions: human, HepG2 cells, HepG2 cell growth inhibition over 48 h. In a few lines:
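HepG2 cells (1000/well, DMEM + 10% FCS) exposed 48 h at 37 °C, 5% CO2 to compound from 50 μM top concentration in 1:2 dilutions, 0.5% DMSO final. Viability read by Cell Titer Glo, normalised to DMSO and 10 μM bortezomib; EC50 by four-parameter variable-slope fit.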

The subject of the next data set is male gamete. The data set can be described thus: Dual gamete formation assay, male gametes. The format is cell-based. As to conditions: Plasmodium falciparum; NF54 parasites in a DGFA, 4 replicates. The protocol:
as §1, §2

Consider `C[C@H]1[C@H](OC(=O)CCC(=O)O)O[C@@H]2O[C@@]3(C)CC[C@H]4[C@H](C)CC[C@@H]1[C@@]24OO3` [ART, artesunate, reference compound], for which, in [1], the “% parasitemia” value was 2.3% and the “% reduction in parasitemia” value was found to be 97.7%.

`CCCN(Cc1ccc(C(=O)NC2CC2)cc1)Cc1ccc(C(C)(C)C)cc1` [Compound 107, 4-(((4-(tert-Butyl)benzyl) (propyl)amino)methyl)-N-cyclopropylbenzamide]: the EC50 – broadly, the concentration giving half of the maximal effect – stood at 21600 nM with female gamete, 20 nM in [5] and 80 nM in the data set on male gamete. The logD (in general, the decadic logarithm of the distribution of all forms, ionised or not, between an organic phase and buffer at a given pH) at 2 h in [2] is 4.9. Further, in “Rat hepatocyte stability”, the hepatocyte CLint – broadly, the rate of metabolic loss divided by the concentration – at 1.5 h, 1 µM was 92 µL/min/1e6 cells. Also, the microsomal CLint – broadly, a measure of how fast metabolising enzymes remove a compound, apart from limits set by blood flow – at 1 h, 1 µM in data set [3] was found to be 263 µL/min/mg. In addition, the concentration in solution in data set [4] (solubility at 2 h) came to 10 µM (≈ 3.79 µg/mL). Further, in data set [6], the CC50 (commonly the concentration giving 50% cytotoxicity) at 48 h is > 40000 nM.

In the case of `CCCN(Cc1ccc(C(=O)NC2CC2)cc1)Cc1cc(C(F)(F)F)cc(C(F)(F)F)c1` [Compound 109, 4-(((3,5-Bis(trifluoromethyl)benzyl) (propyl)amino)methyl)-N-cyclopropylbenzamide], the logD at 2 h in data set [2] came out at 5. In the data set “Rat hepatocyte stability”, this molecule gave an intrinsic clearance (hepatocyte CLint) at 1.5 h, 1 µM of 60 µL/min/1e6 cells. The molecule also showed a microsomal CLint at 1 h, 1 µM in [3] of 65 µL/min/mg. Further, the concentration in solution in data set [4] (solubility at 2 h) came to 2.5 µM (≈ 1.15 µg/mL). Besides, the half-maximal effective concentration (EC50) in [5] was 30 nM. In addition, the CC50 at 48 h in [6] is 10000 nM. In data set [1] (50 mg/kg q.d. oral, 4 days), the “body weights of mice” value is “slightly reduced”. Further, in [1], the “% parasitemia” value was found to be 91% and the “% reduction in parasitemia” value is given as 9%.

Regarding `CCCN(Cc1ccc(C(=O)NC2CC2)cc1)Cc1c(C)cc(C)cc1C` [Compound 110, N-Cyclopropyl-4-((propyl(2,4,6-trimethylbenzyl)amino)methyl)benzamide], the EC50 in the data set with female gamete is > 25000 nM; in data set [5] it was 80 nM; with male gamete, 280 nM. The CC50 at 48 h in [6] was > 40000 nM.
